Assay [1] addresses recombinant human QC (Homo sapiens, UniProt Q16769). Nature of the assay: Chemotactic potency of human MCP-1 in absence or presence of a QC-inhibitor (QC-mediated pGlu formation, then DP4 cleavage). The class given is biochemical. Conditions: 10 μM inhibitor, FIG. 12. The procedure:
Recombinant human MCP-1(1-76) (SEQ ID NO: 1) starting with an N-terminal glutamine (Peprotech) was dissolved in 25 mM Tris/HCl pH 7.6 in a concentration of 10 μg/ml. The MCP-1 solution was either pre-incubated with recombinant human QC (0.0006 mg/ml) for 3 h at 30° C. and subsequently incubated with recombinant human DP4 (0.0012 mg/ml) at 30° C. or incubated with DP4 without prior QC application. In addition, the incubation of Gln^1-MCP-1 with recombinant human QC was carried out in the presence of 10 μM of 1-(3-(1H-imidazol-1-yl)propyl)-3-(3,4-dimethoxyphenyl)thiourea hydrochloride. Resulting DP4 cleavage products were analyzed using Maldi-TOF mass spectrometry after 0 min, 15 min, 30 min, 1 h, 2 h and 4 h.
The chemotaxis assay was performed using 24 well TransWell plates with a pore size of 5 μm (Corning). THP-1 cells were suspended in RPMI1640 in a concentration of 1*10^6 cells/100 μl and applied in 100 μl aliquots to the upper chamber. Cells were allowed to migrate towards the chemoattractant for 2 h at 37° C. […] Afterwards, cells migrated to the lower chamber were counted using a cell counter system (Schärfe System). The chemotactic index was calculated by dividing cells migrated to the stimulus from cells migrated to the negative control. […]

For assay [2], the system named is Normal Human Dermal Fibroblasts (NHDF). Nature of the assay: hMCP-1 N1pE/hMCP-1 ratio by ELISA in OSM+IL1β stimulated NHDF treated with QCI. In kind it is cell-based. As to conditions: 10 μM QCI. Here is the method:
To capture human MCP-1, commercially available polyclonal antiserum goat anti-hMCP1-AF (R&D Systems, Minneapolis, USA) as capture antibody which specifically binds human MCP-1 was diluted in PBS to 250 ng/ml and immobilized in polystyrene 96-well microtitre plates overnight at 4° C. Thereafter, blocking occurred for 2 hours at room temperature with ELISA Blocker (Thermo Fisher Scientific, Waltham, USA). For preparation of the standard curve recombinant hMCP-1 was incubated with recombinant human Glutaminyl Cyclase (QC) in order to obtain hMCP-1 N1pE. The recombinant hMCP-1 N1pE standard peptide was serially diluted with ELISA Blocker from 1000 pg/ml down to 15.63 pg/ml and added to the wells in duplicate. Two wells filled with ELISA Blocker represent the standard curve value 0 pg/ml. After an incubation period of 2 hours at room temperature, plates were washed at least three times with TBS-T. For detection of hMCP-1 N1pE, the MCP-1 N1pE antibody clone 348-2C9 together with HRP-conjugated anti mouse antibody were both diluted in blocking buffer to final concentrations of 500 ng/ml. For detection of hMCP-1, the antibody mouse anti hMCP-1 (Peprotech, Hamburg, Germany) together with HRP-conjugated anti mouse antibody were also both diluted in blocking buffer to final concentrations of 500 ng/ml. The detection antibody/conjugate solutions were incubated for 2 hours at room temperature. […] Absorption at 450/540 nm was determined by a Tecan Sunrise plate reader.
Quantitative detection of hMCP-1 and hMCP-1 N1pE occurred according to the protocol in […]. […] The cell culture supernatants were analyzed at different time points in order to examine time dependency of hMCP-1 and hMCP-1 N1pE secretion. […]
NHDF have been stimulated with 10 ng/ml OSM, IL1β and simultaneously treated with or without 10 μM QCI for 6 days. […] In order to examine the influence of QCI on hMCP-1 and hMCP-1 N1pE level, the cell culture supernatants were analyzed at different time points according to the ELISA protocol in Example 7.
(In general: ELISA stands for enzyme-linked immunosorbent assay.)

Assay [3] relates to A549 cells. Put plainly: hMCP-1 N1pE/hMCP-1 ratio by ELISA in TNFα+IL1β stimulated A549 treated with QCI. Conditions: 24 h, different QCI concentrations. The class given is cell-based, human. Here is the method: To capture human MCP-1, commercially available polyclonal antiserum goat anti-hMCP1-AF (R&D Systems, Minneapolis, USA) as capture antibody which specifically binds human MCP-1 was diluted in PBS to 250 ng/ml and immobilized in polystyrene 96-well microtitre plates overnight at 4° C. Thereafter, blocking occurred for 2 hours at room temperature with ELISA Blocker (Thermo Fisher Scientific, Waltham, USA). For preparation of the standard curve recombinant hMCP-1 was incubated with recombinant human Glutaminyl Cyclase (QC) in order to obtain hMCP-1 N1pE. The recombinant hMCP-1 N1pE standard peptide was serially diluted with ELISA Blocker from 1000 pg/ml down to 15.63 pg/ml and added to the wells in duplicate. Two wells filled with ELISA Blocker represent the standard curve value 0 pg/ml. After an incubation period of 2 hours at room temperature, plates were washed at least three times with TBS-T. For detection of hMCP-1 N1pE, the MCP-1 N1pE antibody clone 348-2C9 together with HRP-conjugated anti mouse antibody were both diluted in blocking buffer to final concentrations of 500 ng/ml. For detection of hMCP-1, the antibody mouse anti hMCP-1 (Peprotech, Hamburg, Germany) together with HRP-conjugated anti mouse antibody were also both diluted in blocking buffer to final concentrations of 500 ng/ml. The detection antibody/conjugate solutions were incubated for 2 hours at room temperature. Following several washes with TBS-T a colour reaction with commercially available HRP substrate TMB (SureBlue Reserve TMB Microwell Peroxidase Substrate (1-component), KPL, Gaithersburg, USA) was performed (30 minutes incubation at room temperature in the dark) and subsequently stopped by the addition of 1,2N H2SO4. Absorption at 450/540 nm was determined by a Tecan Sunrise plate reader.
A549 cells were stimulated for 24 h with 10 ng/ml TNFα and IL1β. Furthermore, QCI was applied in different concentrations to the cells. After 24 h cell culture supernatants were analyzed according to the protocol in Example 7.

Assay [4] has as its system RAW 264.7 cells. Nature of the assay: Western Blot of mMCP-1 N1pE and total mMCP-1 in RAW 264.7 cell culture supernatant. Conditions: RAW 264.7 supernatants, different QCI. The class given is cell-based, mouse. Here is the method: Stimulation of RAW 264.7 and inhibitor application occurred according to Example 9. For Western Blot analysis, proteins of cell culture supernatants were separated by application to a SDS gel electrophoresis. Separated proteins were electrically transferred to nitrocellulose membranes. Membranes were blocked for one hour with TBST-M (=TBST+5% skimmed milk) at room temperature with gentle shaking. Antibody incubation occurred over night at 4° C. on a rocking platform with the detection antibody for total mMCP-1 (Rat anti mouse MCP-1, R&D Systems) diluted to 1 μg/ml in equal volumes of TBST-M or the detection antibody for mMCP-1 N1pE (clone 332-4B8), respectively. Secondary anti-mouse and anti-rat antibody conjugated with horseradish peroxidase were used for signal detection, following standard procedures.

recombinant human QC, sequence (Q16769 29-361): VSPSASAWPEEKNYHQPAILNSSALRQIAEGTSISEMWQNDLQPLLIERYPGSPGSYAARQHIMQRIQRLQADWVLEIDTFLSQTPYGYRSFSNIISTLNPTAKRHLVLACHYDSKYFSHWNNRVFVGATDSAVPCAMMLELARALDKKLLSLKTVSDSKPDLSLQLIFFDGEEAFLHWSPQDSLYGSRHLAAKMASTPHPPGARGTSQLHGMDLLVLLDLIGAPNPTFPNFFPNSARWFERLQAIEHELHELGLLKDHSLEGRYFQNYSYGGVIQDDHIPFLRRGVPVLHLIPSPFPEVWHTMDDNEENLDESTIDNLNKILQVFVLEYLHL

With `COc1ccc(NC(=S)NCCCn2ccnc2)cc1OC.Cl` [QCI, 1-(3-(1H-imidazol-1-yl)propyl)-3-(3,4-dimethoxyphenyl)thiourea hydrochloride], in assay [1], the “pGlu-formation of Gln^1-MCP-1 by QC” value is reported as “prevents pGlu-formation”. In assay [2] (1-2 days), the “hMCP-1 N1pE level after 1-2 days of OSM+IL1β stimulation” value is recorded as “below the limit of quantitation”. Besides, in assay [2] (OSM+IL1β), the “hMCP-1 N1pE level” value is on record as “decreased” and the “ratio of hMCP-1 N1pE/hMCP-1” value is “about 0,35”. In addition, in assay [3], the “amount of hMCP-1 N1pE” value is recorded as “reduced by QCI in a concentration dependent manner”, the “amount of total hMCP-1” value was “nearly unaffected” and the “ratio of hMCP-1 N1pE/hMCP-1” value is reported as “decreases with increasing inhibitor concentrations”. Moreover, the “Western Blot signal of mMCP-1 N1pE” value in assay [4] (FIG. 22A) is reported as “concentration dependent”. The “Western Blot signal intensity of total mMCP-1” value in assay [4] (FIG. 22B) was “no change”.
